The record followed here is patent US20200361895A1, “NOVEL SULFONAMIDE CARBOXAMIDE COMPOUNDS” (Inflazome Limited, priority 2017, published 2020).

Chain of NLRP3 (Q96P20 whole entry): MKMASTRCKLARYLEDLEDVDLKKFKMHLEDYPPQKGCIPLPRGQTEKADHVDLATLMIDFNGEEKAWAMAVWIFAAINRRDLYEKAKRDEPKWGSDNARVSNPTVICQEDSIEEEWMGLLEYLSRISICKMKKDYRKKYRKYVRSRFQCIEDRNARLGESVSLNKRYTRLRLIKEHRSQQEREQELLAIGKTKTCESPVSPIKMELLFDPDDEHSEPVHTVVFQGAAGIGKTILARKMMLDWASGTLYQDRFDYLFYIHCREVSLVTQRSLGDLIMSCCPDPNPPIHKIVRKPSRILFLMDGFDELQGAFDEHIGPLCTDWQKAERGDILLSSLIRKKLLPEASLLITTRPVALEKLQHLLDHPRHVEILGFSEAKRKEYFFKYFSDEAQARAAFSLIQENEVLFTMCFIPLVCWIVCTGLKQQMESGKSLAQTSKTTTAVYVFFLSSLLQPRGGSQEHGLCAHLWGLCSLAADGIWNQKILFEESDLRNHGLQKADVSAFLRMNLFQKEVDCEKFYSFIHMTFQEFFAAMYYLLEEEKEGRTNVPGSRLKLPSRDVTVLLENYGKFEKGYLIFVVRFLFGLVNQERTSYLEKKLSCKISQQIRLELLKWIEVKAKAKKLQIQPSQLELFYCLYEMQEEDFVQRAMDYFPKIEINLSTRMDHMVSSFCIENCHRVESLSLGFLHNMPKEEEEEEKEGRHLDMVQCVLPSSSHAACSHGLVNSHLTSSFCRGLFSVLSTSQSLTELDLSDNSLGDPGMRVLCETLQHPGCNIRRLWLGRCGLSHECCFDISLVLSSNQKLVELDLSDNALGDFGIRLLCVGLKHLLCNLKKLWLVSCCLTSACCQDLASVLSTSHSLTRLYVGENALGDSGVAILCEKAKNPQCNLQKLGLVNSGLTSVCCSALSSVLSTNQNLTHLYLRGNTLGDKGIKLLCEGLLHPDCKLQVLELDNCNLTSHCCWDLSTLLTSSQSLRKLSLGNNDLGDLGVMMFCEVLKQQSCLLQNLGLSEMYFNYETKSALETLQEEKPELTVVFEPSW

For the test, the target named is NLRP3 (Homo sapiens, UniProt Q96P20). As to the kind of experiment: THP-1 cells pyroptosis assay (LPS + nigericin, resazurin readout; THP IC50). Type of test: cell-based. More on the design: Seed THP-1 cells (25,000 cells/well) containing 1.0 μg/ml LPS in 40 μl of RPMI medium; host or cells: THP-1 cells. As to the method:
THP-1 cells (ATCC #TIB-202) were grown in RPMI containing L-glutamine (Gibco #11835) supplemented with 1 mM sodium pyruvate (Sigma #S8636) and penicillin (100 units/ml)/streptomycin (0.1 mg/ml) (Sigma #P4333) in 10% Fetal Bovine Serum (FBS) (Sigma #F0804). The cells were routinely passaged and grown to confluency (˜10^6 cells/ml). On the day of the experiment, THP-1 cells were harvested and resuspended into RPMI medium (without FBS). The cells were then counted and viability (>90%) checked by Trypan blue (Sigma #T8154). Appropriate dilutions were made to give a concentration of 625,000 cells/ml. To this diluted cell solution was added LPS (Sigma #L4524) to give a 1 μg/ml Final Assay Concentration (FAC). 40 μl of the final preparation was aliquoted into each well of a 96-well plate. The plate thus prepared was used for compound screening.
The following method step-by-step assay was followed for compound screening. • 1. Seed THP-1 cells (25,000 cells/well) containing 1.0 μg/ml LPS in 40 μl of RPMI medium (without FBS) in 96-well, black walled, clear bottom cell culture plates coated with poly-D-lysine (VWR #734-0317) • 2. Add 5 μcompound (8 points half-log dilution, with 10 μM top dose) or vehicle (DMSO 0.1% FAC) to the appropriate wells • 3. Incubate for 3 hrs at 37° C. and 5% CO2 • 4. Add 5 μnigericin (Sigma #N7143) (FAC 5 μM) to all wells • 5. Incubate for 1 hr at 37° C. and 5% CO2 • 6. At the end of the incubation period, spin plates at 300×g for 3 mins and remove supernatant • 7. Then add 50 μl of resazurin (Sigma #R7017) (FAC 100 μM resazurin in RPMI medium without FBS) and incubate plates for a further 1-2 hrs at 37° C. and 5% CO2 • 8. Plates were read in an Envision reader at Ex 560 nm and Em 590 nm • 9. IC50 data is fitted to a non-linear regression equation (log inhibitor vs response-variable slope 4-parameters)
(In general: Resazurin is reduced to fluorescent resorufin, in cell work by metabolically active cells.)
The term IC50 denotes the midpoint of a concentration-inhibition curve. `COc1cc(-c2cc(F)cc(C(C)C)c2NC(=O)NS(=O)(=O)CC(C)C)ccn1` [Example 132, N-((4-Fluoro-2-isopropyl-6-(2-methoxypyridin-4-yl)phenyl)carbamoyl)-2-methylpropane-1-sulfonamide]: the half-maximal inhibitory concentration (IC50) is not above 1000 nM.

Regarding `COc1cc(-c2ccc3c(c2NC(=O)NS(=O)(=O)CC(C)C)CCC3)ccn1` [Example 133, N-((5-(2-Methoxypyridin-4-yl)-2,3-dihydro-1H-inden-4-yl)carbamoyl)-2-methylpropane-1-sulfonamide], the half-maximal inhibitory concentration (IC50) was not above 500 nM. With `CC(C)CS(=O)(=O)NC(=O)Nc1c(-c2ccncc2)cc(F)c2c1CCC2` [Example 134, N-((7-Fluoro-5-(pyridin-4-yl)-2,3-dihydro-1H-inden-4-yl)carbamoyl)-2-methylpropane-1-sulfonamide] the figure was not above 1000 nM.

Take `CC(C)c1cc(F)cc(-c2ccnc(C#N)c2)c1NC(=O)NS(=O)(=O)CCc1ccccc1` [Example 135, N-((2-(2-Cyanopyridin-4-yl)-4-fluoro-6-isopropylphenyl)carbamoyl)-2-phenylethanesulfonamide]: the IC50 is not above 1000 nM. Next, `COc1cc(-c2cc(F)cc(C(C)C)c2NC(=O)NS(=O)(=O)CCc2ccccc2)ccn1` [Example 136, N-((4-Fluoro-2-isopropyl-6-(2-methoxypyridin-4-yl)phenyl)carbamoyl)-2-phenylethanesulfonamide]: not above 500 nM; `COc1cc(-c2ccc3c(c2NC(=O)NS(=O)(=O)CCc2ccccc2)CCC3)ccn1` [Example 137, N-((5-(2-Methoxypyridin-4-yl)-2,3-dihydro-1H-inden-4-yl)carbamoyl)-2-phenylethanesulfonamide]: not above 500 nM; `CC(C)c1cc(F)cc(-c2ccnc(C#N)c2)c1NC(=O)NS(=O)(=O)C(C)c1ccccc1` (centres unmarked) [Example 139, N-((2-(2-Cyanopyridin-4-yl)-4-fluoro-6-isopropylphenyl)carbamoyl)-1-phenylethanesulfonamide]: not above 5000 nM. Consider `COc1cc(-c2cc(F)cc(C(C)C)c2NC(=O)NS(=O)(=O)C(C)c2ccccc2)ccn1` (centres unmarked) [Example 140, N-((4-Fluoro-2-isopropyl-6-(2-methoxypyridin-4-yl)phenyl)carbamoyl)-1-phenylethanesulfonamide], for which the IC50 is not above 5000 nM. Next, `COc1cc(-c2ccc3c(c2NC(=O)NS(=O)(=O)C(C)c2ccccc2)CCC3)ccn1` (centres unmarked) [Example 141, N-((5-(2-Methoxypyridin-4-yl)-2,3-dihydro-1H-inden-4-yl)carbamoyl)-1-phenylethanesulfonamide]: not above 1000 nM.

Turning to `CC(c1ccccc1)S(=O)(=O)NC(=O)Nc1c(-c2ccncc2)cc(F)c2c1CCC2` (centres unmarked) [Example 142, N-((7-Fluoro-5-(pyridin-4-yl)-2,3-dihydro-1H-inden-4-yl)carbamoyl)-1-phenylethanesulfonamide], the IC50 was not above 5000 nM.

With `COc1cc(-c2ccc3c(c2NC(=O)NS(C)(=O)=O)CCC3)ccn1` [Example 143, N-((5-(2-Methoxypyridin-4-yl)-2,3-dihydro-1H-inden-4-yl)carbamoyl)methanesulfonamide], the IC50 is not above 1000 nM. Next, `COc1cc(-c2cc3c(cc2NC(=O)NS(=O)(=O)c2ccn(C4CC4)n2)CCC3)ccn1` [Example 144, 1-Cyclopropyl-N-((6-(2-methoxypyridin-4-yl)-2,3-dihydro-1H-inden-5-yl)carbamoyl)-1H-pyrazole-3-sulfonamide]: not above 5000 nM. With `CCN(CC)CCCS(=O)(=O)NC(=O)Nc1c(-c2ccnc(C#N)c2)cc(F)cc1C(C)C` [Example 146, N-((2-(2-Cyanopyridin-4-yl)-4-fluoro-6-isopropylphenyl)carbamoyl)-3-(diethylamino)propane-1-sulfonamide] the figure was not above 1000 nM. Next, `CCN(CC)CCCS(=O)(=O)NC(=O)Nc1c(-c2ccnc(OC)c2)cc(F)cc1C(C)C` [Example 147, 3-(Diethylamino)-N-((4-fluoro-2-isopropyl-6-(2-methoxypyridin-4-yl)phenyl)carbamoyl)propane-1-sulfonamide]: not above 500 nM. In the case of `CCN(CC)CCCS(=O)(=O)NC(=O)Nc1c(-c2ccnc(OC)c2)ccc2c1CCC2` [Example 148, 3-(Diethylamino)-N-((5-(2-methoxypyridin-4-yl)-2,3-dihydro-1H-inden-4-yl)carbamoyl)propane-1-sulfonamide], the 50% inhibitory concentration (IC50) was not above 500 nM. As for `CCN(CCCS(=O)(=O)NC(=O)Nc1c(-c2ccnc(OC)c2)cc(F)cc1C(C)C)Cc1ccccc1` [Example 150, 3-(Benzyl(ethyl)amino)-N-((4-fluoro-2-isopropyl-6-(2-methoxypyridin-4-yl)phenyl)carbamoyl)propane-1-sulfonamide], the IC50 was not above 500 nM. Next, `CCN(CCCS(=O)(=O)NC(=O)Nc1c(-c2ccnc(C#N)c2)cc(F)cc1C(C)C)Cc1ccccc1` [Example 151, 3-(Benzyl(ethyl)amino)-N-((2-(2-cyanopyridin-4-yl)-4-fluoro-6-isopropylphenyl)carbamoyl)propane-1-sulfonamide]: not above 5000 nM; `CCN(CCCS(=O)(=O)NC(=O)Nc1c(-c2ccnc(OC)c2)ccc2c1CCC2)Cc1ccccc1` [Example 152, 3-(Benzyl(ethyl)amino)-N-((5-(2-methoxypyridin-4-yl)-2,3-dihydro-1H-inden-4-yl)carbamoyl)propane-1-sulfonamide]: not above 500 nM. With `COCCCS(=O)(=O)NC(=O)Nc1c(-c2ccnc(C#N)c2)cc(F)cc1C(C)C` [Example 154, N-((2-(2-Cyanopyridin-4-yl)-4-fluoro-6-isopropylphenyl)carbamoyl)-3-methoxypropane-1-sulfonamide] the figure was not above 5000 nM. Next, `COCCCS(=O)(=O)NC(=O)Nc1c(-c2ccnc(OC)c2)cc(F)cc1C(C)C` [Example 155, N-((4-Fluoro-2-isopropyl-6-(2-methoxypyridin-4-yl)phenyl)carbamoyl)-3-methoxypropane-1-sulfonamide]: not above 500 nM. As for `COCCCS(=O)(=O)NC(=O)Nc1c(-c2ccnc(OC)c2)ccc2c1CCC2` [Example 156, 3-Methoxy-N-((5-(2-methoxypyridin-4-yl)-2,3-dihydro-1H-inden-4-yl)carbamoyl)propane-1-sulfonamide], the 50% inhibitory concentration (IC50) was not above 500 nM. Regarding `COCCCS(=O)(=O)NC(=O)Nc1c(-c2ccncc2)cc(F)c2c1CCC2` [Example 157, N-((7-Fluoro-5-(pyridin-4-yl)-2,3-dihydro-1H-inden-4-yl)carbamoyl)-3-methoxypropane-1-sulfonamide], the IC50 was not above 5000 nM. With `CN1CCC(CS(=O)(=O)NC(=O)Nc2c(-c3ccncc3)cc(F)c3c2CCC3)C1` (centres unmarked) [Example 165, N-((7-Fluoro-5-(pyridin-4-yl)-2,3-dihydro-1H-inden-4-yl)carbamoyl)-1-(1-methylpyrrolidin-3-yl) methanesulfonamide] the figure was not above 5000 nM; with `CCn1nc(S(=O)(=O)NC(=O)Nc2c(-c3cccc(OC)c3)ccc3c2CCC3)cc1CN(C)C` [Example 194, 5-((Dimethylamino)methyl)-1-ethyl-N-((5-(3-methoxyphenyl)-2,3-dihydro-1H-inden-4-yl)carbamoyl)-1H-pyrazole-3-sulfonamide], not above 1000 nM; with `CC(C)c1cccc(-n2ccnc2)c1NC(=O)NS(=O)(=O)c1ccn(C(C)C)n1` [Example 204, N-((2-(1H-Imidazol-1-yl)-6-isopropylphenyl)carbamoyl)-1-isopropyl-1H-pyrazole-3-sulfonamide], not above 5000 nM. Take `CC(C)n1ccc(S(=O)(=O)NC(=O)Nc2c(-c3cccnc3)cc(F)cc2-c2cccnc2)n1` [Example 208, N-((4-Fluoro-2,6-di(pyridin-3-yl)phenyl)carbamoyl)-1-isopropyl-1H-pyrazole-3-sulfonamide]: the IC50 is not above 5000 nM. With `COc1cc(-c2ccc3ncccc3c2NC(=O)NS(=O)(=O)c2ccn(C(C)C)n2)ccn1` [Example 212, 1-Isopropyl-N-((6-(2-methoxypyridin-4-yl)quinolin-5-yl)carbamoyl)-1H-pyrazole-3-sulfonamide] the figure was not above 5000 nM; with `COc1cc(-c2ccc3ccncc3c2NC(=O)NS(=O)(=O)c2ccn(C(C)C)n2)ccn1` [Example 217, 1-Isopropyl-N-((7-(2-methoxypyridin-4-yl)isoquinolin-8-yl)carbamoyl)-1H-pyrazole-3-sulfonamide], not above 10000 nM. Next, `Cc1cc(-c2ccc3c(c2NC(=O)NS(=O)(=O)c2ccn(C(C)C)n2)CCC3)n(C)n1` [Example 220, N-((5-(1,3-Dimethyl-1H-pyrazol-5-yl)-2,3-dihydro-1H-inden-4-yl)carbamoyl)-1-isopropyl-1H-pyrazole-3-sulfonamide]: not above 10000 nM.
